{"source": "patent US9629899B2", "about": "“Targeted cargo protein combination therapy” (priority 2008, dated 2017)", "key": {"[1]": {"test_system": "MIA-PaCa-2-GFP tumors", "experiment": "Advanced metastatic pancreatic tumor model, orthotopic MIA-PaCa-2-GFP, whole-body imaging and survival", "assay_type": "in vivo, nude mice", "experimental": "(§1) Surgical orthotopic implantation of MIA-PaCa-2-GFP tumors. MIA-PaCa-2-GFP cells were injected s.c. into the right dorsal flank of nude mice. Pancreatic tumors, grown s.c. in nude mice, were cut with scissors and minced into f3% 3% 3-mm pieces. For orthotopic surgery, the pancreas was carefully exposed, and tumor chunks were transplanted on the middle of the pancreas with a 6-0 Dexon surgical suture (Davis-Geck, Inc.). The pancreas was then returned to the peritoneal cavity, the abdominal wall, and the skin was closed with 6-0 Dexon sutures.\nFor advanced pancreatic cancer model, primary and metastasis tumor lesions were detected by external whole-body imaging on day 14 post-transplantation of tumor chunk and randomized into four groups of 10 mice each. Treatment was initiated on day 15.\nThe mean tumor volume in therapeutic and control groups was analyzed by ANOVA. Survival curves were generated by Kaplan-Meier method and compared by using the log-rank test.\nGroup 2 animals received gemcitabine (150 mg/kg) by i.p. administration twice a week as long as the experiment lasted."}, "[2]": {"test_system": "HS766T cells", "experiment": "Protein synthesis inhibition assay (cytotoxicity), HS766T", "assay_type": "cell-based", "conditions": "Homo sapiens, read-out: IC50 (50% protein synthesis inhibition), single agent", "experimental": "Protein synthesis inhibition assay and assessment of synergism or antagonism. […] On the basis of the isobologram analysis for mutually exclusive effects, the CI value was calculated as follows:"}, "[3]": {"test_system": "MIA-PaCa-2 cells", "experiment": "cells", "assay_type": "cell-based, human"}, "[4]": {"conditions": "mice receiving optimal doses; data not shown"}, "[5]": {"test_system": "clinical pancreatic cancer sample xenograft", "experiment": "Advanced orthotopic pancreatic cancer model from a clinical sample, survival", "assay_type": "in vivo", "conditions": "clinical sample in SCID mice, treatment from day 31; gemcitabine 150 mg/kg i.p. twice a week; PRX321 100 ug/kg i.p. twice a day days 31-35; non-treatment 62 days", "experimental": "Primary and orthotopic pancreatic cancer model using a clinical sample. […] Viable tumor tissue from specimen was cut into small pieces (3% 3% 3 mm) and implanted in the pancreas of 5- to 6-week-old male SCID mice. Primary xenografts were propagated continuously in SCID mice for in vivo testing. Clinical sample-bearing mice were also treated after day 31 by the same protocol as described above.\n(§2) Statistical analysis. The mean tumor volume in therapeutic and control groups was analyzed by ANOVA. Survival curves were generated by Kaplan-Meier method and compared by using the log-rank test.\nThese mice, when advanced disease developed, were divided into four groups on day 31 and treated as described in Materials and Methods. […] Group 2 animals received gemcitabine (150 mg/kg) by i.p. administration twice a week as long as the experiment lasted."}, "[6]": {"test_system": "Capan-1 cells", "experiment": "cells", "assay_type": "cell-based, human"}, "[7]": {"test_system": "SW1990 cells", "experiment": "cells", "assay_type": "cell-based, human"}, "[8]": {"test_system": "MIA-PaCa-2-GFP tumors", "experiment": "Early pancreatic tumor model, orthotopic MIA-PaCa-2-GFP, whole-body imaging and survival", "assay_type": "in vivo, nude mice", "experimental": "as §1\nExperimental design and treatment. For early pancreatic cancer model, primary tumor lesions were detected by external whole-body imaging on day 4 after transplantation. Once the tumors were visualized, mice were randomized into four groups of 10 each. Treatment was initiated on day 5. For advanced pancreatic cancer model, primary and metastasis tumor lesions were detected by external whole-body imaging on day 14 post-transplantation of tumor chunk and randomized into four groups of 10 mice each. Treatment was initiated on day 15.\nas §2\nTreatment was initiated on day 5 after transplantation. […]"}, "[9]": {"conditions": "Homo sapiens, read-out: IC50 (50% protein synthesis inhibition), single agent"}}}
{"compound": "Nc1ccn([C@@H]2O[C@H](CO)[C@@H](O)C2(F)F)c(=O)n1", "note": "[Gemcitabine]", "values": [{"measurement": "Reduction in tumor size on day 28 compared with the no treatment group", "setting": "[1]; day 28", "result": 39.8, "unit": "%"}, {"measurement": "Median survival time", "setting": "[1]; non-treatment group 28 days", "result": 34, "unit": "days"}, {"measurement": "Tumor growth compared with non-treatment group (whole-body imaging)", "setting": "[1]; treatment from day 15, gemcitabine 150 mg/kg i.p. twice a week, PRX321 100 ug/kg i.p. twice a day for 5 days", "result": "reduction in the rate of tumor growth"}, {"measurement": "IC50", "setting": "[2]", "result": 14, "unit": "nM"}, {"measurement": "IC50", "setting": "[3]; [9]", "result": 22, "unit": "nM"}, {"measurement": "IC75 (75% protein synthesis inhibition)", "setting": "[3]; single agent", "result": 280, "unit": "nM"}, {"measurement": "Visible signs of toxicity (weight loss, inactivity)", "setting": "[4]", "result": "no visible signs of toxicity"}, {"measurement": "Median survival time", "setting": "[5]", "result": 86, "unit": "days"}, {"measurement": "IC50", "setting": "[6]; [9]", "result": 3.2, "unit": "nM"}, {"measurement": "IC75 (75% protein synthesis inhibition)", "setting": "[6]; single agent", "result": 9, "unit": "nM"}, {"measurement": "IC50", "setting": "[7]; [9]", "result": 1000, "unit": "nM"}, {"measurement": "IC75 (75% protein synthesis inhibition)", "setting": "[7]; single agent", "result": "3,000 nmol/L"}, {"measurement": "Median survival time", "setting": "[8]; non-treatment group 27 days", "result": 54, "unit": "days"}, {"measurement": "Tumor growth compared with non-treatment group (whole-body imaging)", "setting": "[8]; treatment from day 5, gemcitabine 150 mg/kg i.p. twice a week, PRX321 100 ug/kg i.p. twice a day for 5 days", "result": "reduction in the rate of tumor growth"}]}
